The values below come from patent publication US6280715A, “Cosmetic composition useful notably for the skin whitening and melanogenesis inhibiting agent containing such a cosmetic composition” (Exsymol S.A.M., priority 1997, dated 2001).

In one assay the test system is tyrosinase. In words: in vitro inhibition of melanin formation from L-DOPA by tyrosinase. In kind it is biochemical. Particulars: product diluted at 1.10^-3 mole.l^-1 (2 ml in mixture), pH 6.8, 4 hours at 37° C., optical density at 400 nm. On the procedure:
The reference used is the ascorbic acid in solution at 0.3.10^-3 mole l^-1.
2 ml of a L-DOPA solution, 1.25 ml of tyrosinase (2500 units/ml), 2 ml of product (Ia) diluted at 1.10^-3 mole.l^-1 are mixed together, and the mixture is completed with 20 ml of phosphate buffer (NaH2 PO4 0.1 mole l^-1 +Na2 HPO4 0.1 mole.l^-1, pH=6.8). The mixture is stirred for 4 hours at 37° C., then allowed to cool at room temperature for one night, shielded from light.
1 ml of concentrated hydrochloric acid is added and the mixture is centrifuged at 4000 rpm for 5 min. The pellet is washed with 10 ml of distilled water then centrifuged a second time. A reflux is made on the pellet with concentrated acid HCL 6N for 48 hours. The dried pellet is dissolved in 10 ml of toluene, exposed to ultrasounds for 2 min, put 2 hours at 37° C. then exposed to ultrasounds again for 5 min. The optical density is measured at 400 nm.

A further assay relates to S91 melanoma cells. Put plainly: melanin content of UV-irradiated S91 melanoma cell cultures. Format: cell-based. Particulars: Mus musculus, S91, light or radiation study. On the procedure:
The inhibiting activity on melanin, of the 1-amino-ethylphosphinic acid (Ia) is studied on S91 melanoma cells cultures.
The model of study was finalized by Gilchrest (1987).
The cultured cells are purchased from a Cloudman melanom.
As ordinary melanocytes, they respond to UV stimuli by an increase of melanogenesis.
The melanogenesis evaluation is made through the melanin content and the activity of enzymes involved in this metabolism: tyrosinase and dopa-tautomerase.
S91 cells are plated in P60 dishes at a density of […] per dish and maintained in Dubelcco's modified Eagle's medium and provided with 10% of calf serum. When the cells have reached about 50% of confluence, they are exposed to a UV irradiation of 10 mJ/cm^2 at 285±5 nm. During irradiation, the medium is replaced with a salin phosphate solution (PBS) to eliminate the forming of toxical derivatives. Immediately after irradiation, the PBS is replaced with fresh medium/7% of calf serum with or without the active agent. After a 16 hours incubation, the medium is replaced with ordinary medium with or without the active agent. […]
The melanin content is then determined: melanocytes are trypsinized, twice washed with PBS and dissolved in 0.8 ml of NaOH 1N, when strongly vortexed for 10-15 min and heated at 60-80° C. The melanin concentration is determined based on the absorbance at 475 nm.

For `CC(N)[PH](=O)O` (stereo not shown) [(Ia), 1-amino-ethylphosphinic acid], the “percentage of inhibition of melanin” value with tyrosinase amounted to 46%. Further, in the assay on S91 melanoma cells (read-out: decrease of melanin rate in the cells), the inhibition at 500 µM is 47.2%.

For the molecule `CC(C)CC(N)[PH](=O)O` (stereo not shown) [(Ib), 1-amino-3-methylbutylphosphinic acid], in the assay with tyrosinase, the “percentage of inhibition of melanin” value was found to be 44%.

Turning to `O=c1cc(CO)occ1O` [kojic acid, reference compound], in the assay on S91 melanoma cells (kojic acid at 3.3.10^-3 mole.l^-1, UV irradiation 10 mJ/cm^2, absorbance at 475 nm, read-out: decrease of melanin content in the cells), the inhibition at 3300 µM came to 45.2%.
